Tested on: SK-N-SH cells
Test: MTT viability with dexamethasone
Format: cell-based, human
Conditions: 24 h
Protocol: Preliminary results: The expression of GILZ in human neuroblastoma cells was evaluated. […] After resting, the cells were cultured with increasing concentrations of dexamethasone (Dex: 0-10 μM) for 24 h and viability was determined by the MTT assay by measuring the absorbance of the intracellular formazon resulting from the reduction of the yellow tetrazolium MTT by the cell metabolic activity. Absorbance of vehicle treated cells was taken as 100% viable. GILZ expression was measured in protein extracts from separate SK-N-SH cultures by Western blot analysis using GILZ mAb [Santa Cruz Biotechnology, Dallas, Tex.]. Total RNA isolated from similar SK-N-SH cultures was reverse transcribed and the GILZ mRNA was amplified using the SYBR green qPCR mix (SA Biosciences, Fredrick, Md.) on the ABI Prism 7000 system (Applied Biosystem, Calif.).

C[C@@H]1C[C@H]2[C@@H]3CCC4=CC(=O)C=C[C@]4(C)[C@@]3(F)[C@@H](O)C[C@]2(C)[C@@]1(O)C(=O)CO [DEX, dexamethasone]
toxicity (MTT viability) (1 μM): not toxic
reduction of viability (10 μM): 25%
